Measurements taken from US5475029A, “Farnesyl compounds as cholesterol lowering agents” (The Board of Trustees of the Leland Stanford Junior …, priority 1993, dated 1995).

Assays:
[1] = system: HMGal; test: HMGal activity (in vitro β-galactosidase specific activity) in CHO-HMGal cells; format: cell-based; details: for reduction in HMGal activity at concentrations below the levels toxic to the cells: five isoprenoid compounds tested
Method: (§1) Cell Culture--All cells were grown as monolayers at 37° C. in an atmosphere of 5% CO2. CHO-HMGal cells were grown in minimal essential medium (MEM) supplemented with 0.25 mg/ml active geneticin and either 5% fetal calf serum (FCS) or 5% lipid-poor fetal calf serum (LPS).
Stock Solutions--Stock solutions of farnesyl acetate, ethyl farnesyl ether, and the mixture of 25-hydroxycholesterol with cholesterol were all made in 100% ethanol at 100 times the final concentration. In all experiments in which these compounds were used, there is a final concentration of 1% ethanol in the medium. For control, cells grown with "no additives" or "mevalonate" 100% ethanol was added to the medium to bring the final concentration of ethanol to 1%. The mevalonate stock solution was prepared at a concentration of 2M in 20 mM potassium phosphate buffer (pH 4.5).
(§2) β-galactosidase Specific Activity--In vitro β-galactosidase activity was measured using the substrate, o-nitrophenyl-β-D-galactopyranoside. Specific activities were calculated using protein concentration values.
Farnesyl acetate and ethyl farnesyl ether stimulate a reduction in HMGal activity--In an attempt to identify tile non-sterol metabolite(s) that triggers the down regulation of HMG-CoA reductase, five commercially available isoprenoid compounds were tested for their effects on HMGal activity in CHO-HMGal cells. Each of tile compounds tested closely resembled one of tile naturally occurring isoprenoid pyrophosphates, except that the pyrophosphate group had been replaced by either a hydroxyl or an […] group. The compounds tested included: 3-methyl-2-buten-1-ol, the alcohol of the five carbon isoprenoid-dimethylallyl pyrophosphate (a naturally occurring isomer of isopentenyl pyrophosphate); geraniol and geranyl acetate, the alcohol and the […] of the ten carbon isoprenoid-geranyl pyrophosphate; and farnesol and farnesyl acetate, the alcohol and the […] of the fifteen carbon isoprenoid-farnesyl pyrophosphate.
(§3) To confirm that the reduction in HMGal activity was the result of a regulatory function specifically targeting the membrane domain of HMGal, the effects of farnesyl acetate on β-galactosidase activity were measured in vitro for both CHO-HMGal cells and CHO-Gal cells. The CHO-Gal cells had been stably transfected with a construct identical to the HMGal construct (using the same vector, promoter, and 5' and 3' flanking regions) except that the construct in the CHO-Gal cells codes for a soluble β-galactosidase protein instead of the HMGal fusion protein with the membrane domain of HMG-CoA reductase. In this experiment, the CHO-Gal cells served to control for any artifacts farnesyl acetate might cause in the β-galactosidase assay or any nonspecific effects farnesyl acetate might have on the rates of protein synthesis or degradation.

[2] = system: β-galactosidase; test: β-galactosidase activity in CHO-Gal control cells; format: cell-based
Method: as §2, §3

[3] = system: CHO-HMGal cells; test: Cell growth of CHO-HMGal cells in farnesyl compounds; format: cell-based; details: 20 μg/ml
Method: as §1
Cell growth in farnesyl acetate and ethyl farnesyl ether CHO-HMGal cells were grown in a range of farnesyl acetate and ethyl farnesyl ether concentrations, in order to determine the optimal concentration of the farnesyl compounds to use in subsequent experiments.

[4] = system: HMG-CoA reductase; test: HMG-CoA reductase degradation rate (pulse-chase); format: cell-based; details: 10 μg/ml during chase; untreated 9.3 hours
Method: (§4) Measurement of HMGal and HMG-CoA Reductase Degradation Rates Cells grown in 60×15 mm dishes were washed once with ice-cold PBS and starved for 1 hour in 1 ml of methionine-free MEM supplemented with 5% LPS, 250 μg/ml of active geneticin, 10 μM compactin, and 0.1 mM mevalonate. These cells were radio-labeled for 2 hours in 300 μl of the methionine-free starvation medium containing 100 μCi of Tran^35 S-label (>1,000 Ci/mmol). Cells were incubated in an MEM-based chase medium containing 2 mM methionine, 5% LPS, 250 μg/ml of active geneticin, 10 μM compactin, and 0.1 mM mevalonate. During the chase period, some plates also had either 20 mM mevalonate, 10 μg/ml farnesyl acetate or 10 μg/ml ethyl farnesyl ether added to them as indicated in the figure legend. Following the chase, cells were washed, lysed and the HMGal and HMG-CoA reductase proteins were immunoprecipitated, subjected to SDS-PAGE and quantified.
(§5) In order to test whether the farnesyl compounds impact degradation, the rates of degradation for HMGal, HMG-CoA reductase, and total cellular protein were measured in the presence and absence of 10 μg/ml farnesyl acetate and ethyl farnesyl ether.

[5] = system: HMGal; test: HMGal degradation rate (pulse-chase); format: cell-based; details: 10 μg/ml during chase; untreated 6.4 hours
Method: as §4, §5

[6] = system: total cellular protein; test: Total cellular protein degradation; format: cell-based; details: 10 μg/ml
Method: as §4, §5

[7] = system: cholesterol biosynthesis; test: [3H]acetate incorporation into cholesterol in CHO-HMGal cells; format: cell-based
Method: (§6) Thin Layer Chromatography--TLC was performed using Analtech 250 μm silica gel G plates with a hexanes/diethyl ether (1:1) solvent system. Lipid standards were visualized by iodine staining. Bands were scraped from the plate and their radioactivity was measured.
(§7) Quantification of Radioactivity--Samples were suspended in 4 ml of scintillation fluid (Cytoscint from ICN). The radioactivity of the samples was measured using a Beckman LS-7500 scintillation counter.
Subsequently, the cells were labeled for 1,2, and 4 hours with [^3 H]acetate and harvested. The non-saponifiable lipid fraction from each cell type was extracted and separated by TLC. The radioactivity that co-migrated with cholesterol was measured and normalized for the amount of cellular protein.
Farnesyl acetate and ethyl farnesyl ether were only present during the labeling period so that any reduction in incorporation into cholesterol would be the result of inhibition and not a down regulation in HMG-CoA reductase.

[8] = system: cholesterol biosynthetic pathway; test: TLC distribution of [3H]acetate-derived non-saponifiable lipids (site of metabolic block); format: cell-based; design: radioactivity in the cell-derived fraction co-migrating with lanosterol / radioactivity in the cell-derived fraction co-migrating with squalene / radioactivity in the cell-derived fraction co-migrating with cholesterol / remaining radioactivity in the cell-derived fraction scattered throughout the rest of the TLC lane: concentration or dose not given beside the values
Method: Lipid Saponification and Extraction Procedure Saponification and extraction of lipids from cell and media samples was performed as previously described in Bradfute, et al. (1992) J.B.C. 267:18308-18314.
as §6, §7
To determine tile site of tile metabolic block caused by farnesyl acetate and ethyl farnesyl ether, the non-saponifiable lipids from cells grown in the presence of the farnesyl compounds were examined for the accumulation of intermediates in the cholesterol biosynthetic pathway. The cells were only labeled for 1 hour and only treated with the farnesyl compounds during the labeling period; so that any intermediates which accumulated would be as a result of the inhibitory effects of the farnesol compounds and not subsequent regulatory effects on HMG-CoA reductase. CHO-HMGal cells were incubated with [^3 H]acetate and either farnesyl acetate, ethyl farnesyl ether, or no additive. The non-saponifiable lipids were isolated from both the cell, and the medium and separated by TLC.

[9] = system: HMG-CoA reductase; test: HMG-CoA reductase synthesis rate ([35S]methionine incorporation); format: cell-based; details: 20 mM
Method: (§8) Measurement of HMGal and HMG-CoA Reductase Synthesis Rates Cells plated into 60×15 mm dishes were grown in 5% LPS MEM with 0.25 mg/ml active geneticin for 24 hours. These cells were washed with PBS and grown for 24 hours in 5% LPS MEM supplemented with 0.25 mg/ml active geneticin, 10 μM compactin and 0.1 mM mevalonate. After 24 hours, the medium was removed, the cells were washed with PBS and the medium was replaced with methionine-free MEM supplemented with 5% LPS, 250 μg/ml of active geneticin, 10 μM compactin, and 0.1 mM mevalonate. In addition, 20 mM mevalonate or 10 μg/ml farnesyl acetate was included in those plates previously treated with these compounds. […] Cells were washed, lysed and the HMGal and HMG-CoA reductase proteins were immunoprecipitated, subjected to SDS-PAGE and quantified. […]
(§9) Farnesyl compounds reduce translation and stimulate degradation of HMG-CoA reductase and HMGal A reduction in HMGal specific activity triggered by the farnesyl compounds could have been the result of a decrease in HMGal synthesis, an increase in HMGal degradation, or a combination of changes in both the synthesis and degradation rates. In order to test whether the farnesyl compounds impact synthesis, the rates of HMGal, HMG-CoA reductase, and total cellular protein synthesis were measured by [^35 S]methionine incorporation in the presence and absence of 10 μg/ml farnesyl acetate.

[10] = system: HMGal; test: HMGal synthesis rate ([35S]methionine incorporation); format: cell-based; details: 20 mM
Method: as §8, §9

[11] = system: squalene synthase; test: Squalene synthase assay (cell lysate); format: biochemical; details: 1 nM to 50 μM
Method: Squalene Synthase Assay--The cell lysate was prepared immediately prior to running the assay. Cells were washed three times with PBS, once with a 0.1M potassium phosphate buffer (pH 7.4) containing 5 mM MgCl2 and 5 mM CHAPS, and once with a 0.01M potassium phosphate buffer (pH 7.4) containing 0.5 mM MgCl2 and 0.5 mM CHAPS. Cells were scraped with a rubber policeman in approximately 0.5 ml of the final wash buffer and dounce homogenized with 20 strokes, while on ice. An aliquot of cell lysate was examined with a light microscope to ensure that essentially all cells in the sample were lysed. An additional aliquot of cell lysate was saved for protein determination. […] The squalene was isolated by TLC and the radioactivity of the squalene bands was measured as previously described. […]
Since both farnesyl compounds have a structural similarity to farnesyl pyrophosphate, the substrate for squalene synthase, and some of the farnesyl compounds that have been tested function as a competitive inhibitor of squalene synthase, the effects of farnesyl acetate on in vitro squalene synthase activity was measured. As a positive control, squalene synthase activity was also measured in tile presence of zaragozic acid A, a potent competitive inhibitor of the enzyme. […]

[12] = 1 hour labeling with [3H]acetate, compound only during labeling

CC(C)=CCO [3-methyl-2-buten-1-ol, reference compound]
reduction in HMGal activity at concentrations below the levels toxic to the cells [1]: only farnesyl acetate stimulated a reduction in HMGal activity

CCOCC=C(C)CCC=C(C)CCC=C(C)C [ethyl farnesyl ether]
reduction of HMGal activity ([1]; 10 μg/ml, 24 hour treatment): 40%
reduction of HMGal activity ([1]; 20 μg/ml): 50%
change of β-galactosidase activity of CHO-Gal cells ([2]; 10 μg/ml): insignificant
change of β-galactosidase activity of CHO-Gal cells ([2]; 20 μg/ml): essentially unchanged
reduction in cell growth [3]: approximately 60%
half-life of HMG-CoA reductase [4]: 2.9 h
reduction of the half-life of HMG-CoA reductase [4]: 70%
half-life of HMGal [5]: 3.0 h
reduction of the half-life of HMGal [5]: 50%
effect on the degradation of total cellular protein [6]: Neither farnesyl compound had a significant effect
reduction in [3H]acetate incorporation into cholesterol ([7]; 24 hours pretreatment, then labeled 1, 2 and 4 hours, CHO-HMGal cells): 95%
reduction in [3H]acetate incorporation into cholesterol ([7]; compound present only during the labeling period, no pretreatment): 98%
radioactivity in the cell-derived fraction co-migrating with cholesterol [8, 12]: 1%
radioactivity in the cell-derived fraction co-migrating with lanosterol [8, 12]: 48%
radioactivity in the cell-derived fraction co-migrating with squalene [8, 12]: 45%
remaining radioactivity in the cell-derived fraction scattered throughout the rest of the TLC lane [8, 12]: 6%
total non-saponifiable radioactivity found in the medium ([8]; untreated 6%): 14%
total non-saponifiable radioactivity found in the cells ([8]; untreated 94%): 86%
increase in media-derived material co-migrating with farnesol ([8]; versus untreated sample): 2 fold

CC(C)=CCCC(C)=CCCC(C)=CCO [farnesol, reference compound]
reduction in HMGal activity at concentrations below the levels toxic to the cells [1]: only farnesyl acetate stimulated a reduction in HMGal activity

CC(C)=CCC/C(C)=C/CO [geraniol, reference compound]
reduction in HMGal activity at concentrations below the levels toxic to the cells [1]: only farnesyl acetate stimulated a reduction in HMGal activity

CC(=O)OC/C=C(\C)CCC=C(C)C [geranyl acetate, reference compound]
reduction in HMGal activity at concentrations below the levels toxic to the cells [1]: only farnesyl acetate stimulated a reduction in HMGal activity

CC(O)(CCO)CC(=O)O (centres unmarked) [mevalonate, reference compound]
reduction in HMG-CoA reductase synthesis [9]: 70%
reduction in the rate of HMGal synthesis [10]: 70%

C=C(CC[C@]12O[C@H](C(=O)O)[C@@](O)(C(=O)O)[C@](C(=O)O)(O1)[C@H](OC(=O)/C=C/[C@@H](C)C[C@@H](C)CC)[C@H]2O)[C@@H](OC(C)=O)[C@H](C)Cc1ccccc1 [zaragozic acid A, reference compound]
inhibition of in vitro squalene synthase activity [11]: more than 90%
